PubChem BioAssay (NCI)
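Results reflect a 48-hour exposure of cells in 96-well plates to compound at five concentrations. Abbreviation: GI50, concentration required for 50% inhibition of growth. TGI marks complete inhibition of growth.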

Key:
Assay in all cases: NCI-60 cell line screen, 48 h
HCT-15 colon = test system: HCT-15 colon
NCI-H522 lung = test system: NCI-H522 lung
CAKI-1 renal = test system: CAKI-1 renal
SN12C renal = test system: SN12C renal
SK-OV-3 ovarian = test system: SK-OV-3 ovarian
EKVX NSCLC = test system: EKVX NSCLC
OVCAR-8 ovarian = test system: OVCAR-8 ovarian
786-0 renal = test system: 786-0 renal
SF-539 CNS = test system: SF-539 CNS
ACHN renal = test system: ACHN renal

## O=C(Nc1ccccc1C(=O)Nc1nccs1)c1ccccc1
HCT-15 colon
  TGI: > 100 µM
NCI-H522 lung
  TGI: > 100 µM
CAKI-1 renal
  TGI: > 100 µM
SN12C renal
  TGI: > 100 µM
SK-OV-3 ovarian
  TGI: > 100 µM
EKVX NSCLC
  TGI: > 100 µM
OVCAR-8 ovarian
  TGI: > 100 µM
786-0 renal
  TGI: > 100 µM
SF-539 CNS
  TGI: > 100 µM
ACHN renal
  TGI: > 100 µM

## COc1ccc(S(=O)(=O)n2c3ccccc3n3ncc(-c4nnc(C)o4)c23)cc1
HCT-15 colon
  GI50: 0.424 µM
  TGI: > 75.8 µM
NCI-H522 lung
  GI50: 0.42 µM
  TGI: > 73.6 µM
CAKI-1 renal
  GI50: 0.449 µM
  TGI: > 100 µM
SN12C renal
  GI50: 0.73 µM
  TGI: 39.6 µM
SK-OV-3 ovarian
  GI50: 0.598 µM
  TGI: > 100 µM
EKVX NSCLC
  GI50: 1.12 µM
  TGI: > 100 µM
OVCAR-8 ovarian
  GI50: 1.27 µM
  TGI: > 100 µM
786-0 renal
  GI50: 0.688 µM
  TGI: > 71.3 µM
SF-539 CNS
  GI50: 0.361 µM
  TGI: 7.92 µM
ACHN renal
  GI50: 0.567 µM
  TGI: > 100 µM

## S=C(Nc1ccccc1)N1CCn2c1nsc2=Nc1ccccc1
HCT-15 colon
  GI50: 78.2 µM
  TGI: > 100 µM
NCI-H522 lung
  GI50: 46.2 µM
  TGI: > 100 µM
CAKI-1 renal
  GI50: > 100 µM
  TGI: > 100 µM
SN12C renal
  GI50: > 100 µM
  TGI: > 100 µM
SK-OV-3 ovarian
  GI50: > 100 µM
  TGI: > 100 µM
EKVX NSCLC
  GI50: > 100 µM
  TGI: > 100 µM
OVCAR-8 ovarian
  GI50: > 100 µM
  TGI: > 100 µM
786-0 renal
  GI50: 53.3 µM
  TGI: > 100 µM
SF-539 CNS
  GI50: > 100 µM
  TGI: > 100 µM
ACHN renal
  GI50: 50.3 µM
  TGI: > 100 µM

## CCCNc1cccc(-n2ncc3c(N/N=C/c4ccncc4)ncnc32)c1
HCT-15 colon
  GI50: 1.68 µM
  TGI: > 25 µM
NCI-H522 lung
  GI50: 1.44 µM
  TGI: > 25 µM
CAKI-1 renal
  GI50: 1.1 µM
  TGI: > 25 µM
SN12C renal
  GI50: > 25 µM
  TGI: > 25 µM
SK-OV-3 ovarian
  GI50: 6.92 µM
  TGI: > 25 µM
EKVX NSCLC
  GI50: > 25 µM
  TGI: > 25 µM
OVCAR-8 ovarian
  GI50: 11.7 µM
  TGI: > 25 µM
786-0 renal
  GI50: > 25 µM
  TGI: > 25 µM
SF-539 CNS
  GI50: > 8.45 µM
  TGI: > 25 µM
ACHN renal
  GI50: > 6.92 µM
  TGI: > 25 µM

## CCN(CC)CCOc1nc2cc(OC)c(OC)cc2c2c1-c1ccc(OC)cc1C2=O
HCT-15 colon
  GI50: 1.79 µM
  TGI: 3.78 µM
NCI-H522 lung
  GI50: 0.312 µM
  TGI: 18.7 µM
CAKI-1 renal
  GI50: 10.3 µM
  TGI: 22.5 µM
SN12C renal
  GI50: 5.29 µM
  TGI: 21.1 µM
SK-OV-3 ovarian
  GI50: 13.2 µM
  TGI: 26 µM
EKVX NSCLC
  GI50: 14.2 µM
  TGI: 28.1 µM
OVCAR-8 ovarian
  GI50: 8.62 µM
  TGI: 21.4 µM
786-0 renal
  GI50: 15.7 µM
  TGI: 30.3 µM
SF-539 CNS
  GI50: 8.62 µM
  TGI: 23.6 µM
ACHN renal
  GI50: 11.5 µM
  TGI: 23.8 µM

## CNC(C)Cc1ccc(O)cc1 (stereo not given)
HCT-15 colon
  TGI: > 100 µM
NCI-H522 lung
  TGI: > 100 µM
CAKI-1 renal
  TGI: > 100 µM
SN12C renal
  TGI: > 100 µM
SK-OV-3 ovarian
  TGI: > 100 µM
EKVX NSCLC
  TGI: > 100 µM
OVCAR-8 ovarian
  TGI: > 100 µM
786-0 renal
  TGI: > 100 µM
SF-539 CNS
  TGI: > 100 µM
ACHN renal
  TGI: > 100 µM

## CC(C)N(Cc1ccccc1)S(=O)(=O)c1n[nH]c(C(C)(C)C)n1
HCT-15 colon
  TGI: > 100 µM
NCI-H522 lung
  TGI: > 100 µM
CAKI-1 renal
  TGI: > 100 µM
SN12C renal
  TGI: > 100 µM
SK-OV-3 ovarian
  TGI: > 100 µM
EKVX NSCLC
  TGI: > 100 µM
OVCAR-8 ovarian
  TGI: > 100 µM
786-0 renal
  TGI: > 100 µM
SF-539 CNS
  TGI: > 100 µM
ACHN renal
  TGI: > 100 µM

## CS(=O)(=O)Nc1cc(-c2ccc3ncnc(Nc4cccc(Cl)c4F)c3c2)cnc1Cl
HCT-15 colon
  GI50: 2.78 µM
  TGI: 14.5 µM
NCI-H522 lung
  GI50: 3 µM
  TGI: 17 µM
CAKI-1 renal
  GI50: 1.82 µM
  TGI: 12.6 µM
SN12C renal
  GI50: 3.89 µM
  TGI: 41.2 µM
SK-OV-3 ovarian
  GI50: 1.99 µM
  TGI: 8.81 µM
EKVX NSCLC
  GI50: 1.44 µM
  TGI: 6.27 µM
OVCAR-8 ovarian
  GI50: 4.03 µM
  TGI: 58.5 µM
786-0 renal
  GI50: 3.63 µM
  TGI: 38.5 µM
SF-539 CNS
  GI50: 2.26 µM
  TGI: 7.98 µM
ACHN renal
  GI50: 4.09 µM
  TGI: > 100 µM

## C#CCOc1cccc(Nc2ncc3ncn(C4CCN(C(=O)CCl)C4)c3n2)c1 (stereo not given)
HCT-15 colon
  GI50: > 62.5 µM
  TGI: > 62.5 µM
NCI-H522 lung
  GI50: 7.08 µM
  TGI: 18.1 µM
CAKI-1 renal
  GI50: > 62.5 µM
  TGI: > 62.5 µM
SN12C renal
  GI50: 29.1 µM
  TGI: > 62.5 µM
SK-OV-3 ovarian
  GI50: > 62.5 µM
  TGI: > 62.5 µM
EKVX NSCLC
  GI50: > 62.5 µM
  TGI: > 62.5 µM
OVCAR-8 ovarian
  GI50: > 62.5 µM
  TGI: > 62.5 µM
786-0 renal
  GI50: > 62.5 µM
  TGI: > 62.5 µM
SF-539 CNS
  GI50: > 62.5 µM
  TGI: > 62.5 µM
ACHN renal
  GI50: 14.6 µM
  TGI: 46.2 µM

## O=C1NC(O)CCN1C1CC(O)C(CO)O1 (stereo not given)
HCT-15 colon
  TGI: > 100 µM
NCI-H522 lung
  TGI: > 100 µM
CAKI-1 renal
  TGI: > 100 µM
SN12C renal
  TGI: > 100 µM
SK-OV-3 ovarian
  TGI: > 100 µM
EKVX NSCLC
  TGI: > 100 µM
OVCAR-8 ovarian
  TGI: > 100 µM
786-0 renal
  TGI: > 100 µM
SF-539 CNS
  TGI: > 100 µM
ACHN renal
  TGI: > 100 µM

## C=C(C)[C@@H]1CC[C@]2(C)[C@H](CC=C3[C@@H]4[C@H](C)[C@@H](C)CC[C@]4(CO)CC[C@]32C)[C@@]1(C)CCCN
HCT-15 colon
  GI50: 0.839 µM
  TGI: 1.76 µM
NCI-H522 lung
  GI50: 1.04 µM
  TGI: 2.17 µM
CAKI-1 renal
  GI50: 1.69 µM
  TGI: 5.58 µM
SN12C renal
  GI50: 0.839 µM
  TGI: 1.67 µM
SK-OV-3 ovarian
  GI50: 4.42 µM
  TGI: 12 µM
EKVX NSCLC
  GI50: 1.08 µM
  TGI: 2.94 µM
OVCAR-8 ovarian
  GI50: 1.16 µM
  TGI: 2.8 µM
786-0 renal
  GI50: 0.841 µM
  TGI: 1.58 µM
SF-539 CNS
  GI50: 0.945 µM
  TGI: 1.73 µM
ACHN renal
  GI50: 1.42 µM
  TGI: 3.4 µM

## O=c1[nH]cnc2nc(-c3ccc(N(CCCl)CCCl)cc3)[nH]c12
HCT-15 colon
  GI50: 9.81 µM
  TGI: > 100 µM
NCI-H522 lung
  GI50: > 100 µM
  TGI: > 100 µM
CAKI-1 renal
  GI50: 4.25 µM
  TGI: > 100 µM
SN12C renal
  GI50: 63.7 µM
  TGI: > 100 µM
SK-OV-3 ovarian
  GI50: 5.17 µM
  TGI: 42.8 µM
EKVX NSCLC
  GI50: 11 µM
  TGI: > 100 µM
OVCAR-8 ovarian
  GI50: 8.89 µM
  TGI: > 100 µM
786-0 renal
  GI50: 18.3 µM
  TGI: 53.2 µM
SF-539 CNS
  GI50: 15.1 µM
  TGI: 63 µM
ACHN renal
  GI50: 2.58 µM
  TGI: 33.5 µM

## COc1cc(C(=O)C/C(CCC(=O)Nc2ccc(Cl)cc2Cl)=N/Nc2nnc(C)n2N)ccc1O
HCT-15 colon
  TGI: > 100 µM
NCI-H522 lung
  TGI: > 100 µM
CAKI-1 renal
  TGI: > 100 µM
SN12C renal
  TGI: > 100 µM
SK-OV-3 ovarian
  TGI: > 100 µM
EKVX NSCLC
  TGI: > 100 µM
OVCAR-8 ovarian
  TGI: > 100 µM
786-0 renal
  TGI: > 100 µM
SF-539 CNS
  TGI: > 100 µM
ACHN renal
  TGI: > 100 µM
